Results on 24 compounds are retold here after patent US6479490B2, “3-indolyl-4-phenyl-1H-pyrrole-2,5-dione derivatives as inhibitors of glycogen synthase kinase-3β” (Syntex (U.S.A.) LLC, priority 2000, dated 2002).

Where a name gives a salt, the structure may show the parent alone.

In the first data set the target is T1, truncated form of recombinant rabbit GSK-3β enzyme (Oryctolagus cuniculus, UniProt G1T8E2).
T1 construct: The construct was cloned in pGEX-3X vector; fused on or other part: GST tag at the N-terminus, inferred from the pGEX-3X vector and the glutathione sepharose 4B purification with glutathione elution
T1 sequence (G1T8E2 1-432): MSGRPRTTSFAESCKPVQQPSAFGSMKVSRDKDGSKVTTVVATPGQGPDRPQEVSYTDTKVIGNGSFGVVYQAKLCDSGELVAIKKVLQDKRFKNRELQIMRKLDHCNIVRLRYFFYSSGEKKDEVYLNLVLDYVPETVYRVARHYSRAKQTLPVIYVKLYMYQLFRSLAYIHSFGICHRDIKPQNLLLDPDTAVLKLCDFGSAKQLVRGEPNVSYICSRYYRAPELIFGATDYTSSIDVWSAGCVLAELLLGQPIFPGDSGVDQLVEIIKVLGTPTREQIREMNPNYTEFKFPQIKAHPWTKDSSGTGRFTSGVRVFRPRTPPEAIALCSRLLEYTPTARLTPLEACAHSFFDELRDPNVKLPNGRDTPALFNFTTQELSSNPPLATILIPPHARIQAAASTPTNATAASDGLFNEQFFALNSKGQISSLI
Kind of data set: Inhibition of Glycogen Synthase Kinase-3β, in vitro assay. The class given is biochemical. The conditions noted are these: GSK-3β inhibition, 40 μM ATP, CREB-peptide substrate, 30° C. for 1 h. How it is done: The in vitro GSK-3β inhibitory activity of compounds of this invention was determined with a truncated form of recombinant rabbit GSK-3β enzyme.
The construct was cloned in pGEX-3X vector according to the procedure described in Wang, Q. M. et al., J. Biol. Chem. 269, 14566-14574 (1994). Ten amino acids at the N-terminus were deleted to obtain constitutively active GSK-3β ((see Murai H. et al., FEBS Lett. 392,153-60, (1996)). GSK-3β was expressed in BL21 DE3 cells. The cells were grown at 37° C. until they reached mid log phase and then induced with isopropyl-beta-(D)-thiogalactopyranoside (final concentration 0.4 mM) at 30° C. for 2 h. The cells were homogenized and the cell extract was loaded on a glutathione sepharose 4B column. GSK-3β was eluted with glutathione buffer (50 mM Tris pH 8 and 10 mM reduced glutathione). The eluate was collected in 3 minute fractions and assayed for GSK-3β content on a 10% SDS PAGE (polyacrylamide gel electrophoresis). Fractions above 20% peak height were pooled, aliquoted, and stored at −80° C. until used.
The GSK-3β […] was performed in 50 μl reactions in a 96 well polypropylene plate, each reaction containing 20 mM magnesium chloride, 40 μM ATP, 2 mM DTT, 88.5 μM biotinylated and phosphorylated CREB-peptide substrate (biotin-[…](PO4)YR-OH, see Wang, Q. M. et al., J. Biol. Chem. 269, 14566-14574 (1994)), [γ-^33P] ATP (1 μCi), and 2 μl of compounds of this invention in DMSO (various concentrations). 15 μl of GSK-3β (various concentrations) was added and the reaction mixture was incubated at 30° C. for 1 h. The reaction was stopped by transferring 25 μl of the reaction mixture to a phosphocellulose plate containing 130 μl of 1.85% phosphoric acid. The free radionucleotides in the membrane were washed off under vacuum with 1.85% phosphoric acid (5 times). After the last wash, the plate was transferred to an adoptor plate and 50 μl of scintillation cocktail (Microscint-20, Packard, cat. #20-133) was added to each well and the amount of radioactivity was counted in a top counter.
Regarding `Cn1cc(C2=C(c3ccccc3OCC(O)CO)C(=O)NC2=O)c2ccccc21` (centres unmarked) [Compound I-1, 3-(1-methylindol-3-yl)-4-{2-[(-2-hydroxy-2-hydroxymethyl)ethyloxy]-phenyl}-1H-pyrrole-2,5-dione], the IC50 came out at 194 nM.

Turning to `Cn1cc(C2=C(c3cccc(OCCN)c3)C(=O)NC2=O)c2ccccc21` [II-1, 3-(1-methylindol-3-yl)-4-[3-(2-aminoethyloxy)phenyl]-1H-pyrrole-2,5-dione], the IC50 was 20 nM.

For the compound `Cn1cc(C2=C(c3cccc(OCCCN)c3)C(=O)NC2=O)c2ccccc21` [II-2, 3-(1-methylindol-3-yl)-4-[3-(3-aminopropyloxy)phenyl]-1H-pyrrole-2,5-dione], the 50% inhibitory concentration (IC50) was 26.4 nM.

For `Cn1cc(C2=C(c3cccc(OCCN4CCOCC4)c3)C(=O)NC2=O)c2ccccc21` [II-4, 3-(1-methylindol-3-yl)-4-[3-(2-morpholin-4-ylethyloxy)phenyl]-1H-pyrrole-2,5-dione], the IC50 is 29.6 nM.

In the case of `O=C1NC(=O)C(c2c[nH]c3ccccc23)=C1c1cccc(OCCN2CCOCC2)c1` [III-3, 3-(1H-indol-3-yl)-4-[3-(2-morpholin-4-ylethoxy)phenyl]-1H-pyrrole-2,5-dione], the IC50 was determined as 230 nM.

In the case of `Cn1cc(C2=C(c3ccc(OC[C@@H]4COC(C)(C)O4)cc3)C(=O)NC2=O)c2ccccc21` [IV-1, 3-(1-methylindol-3-yl)-4-[4-((R)-2,2-dimethyl-1,3-dioxolan-4-ylmethyloxy)phenyl]-1H-pyrrole-2,5-dione], the IC50 turned out to be 133 nM.

Tested on in another data set: not given
Assay: not given
Settings: not given
For `Cn1cc(C2=C(c3cccc(NCCCO[Si](C)(C)C(C)(C)C)c3)C(=O)NC2=O)c2ccccc21`, the melting point fell in the range of 58 to 65 °C.

`Cn1cc(C2=C(c3cccc(OCCCO[Si](C)(C)C(C)(C)C)c3)C(=O)NC2=O)c2ccccc21` yielded a melting point of 151.2 to 151.7 °C.

`Cn1cc(C2=C(c3cccc(OCCN)c3)C(=O)NC2=O)c2ccccc21` (as salt: hydrochloride) [II-1, 3-(1-methylindol-3-yl)-4-[3-(2-aminoethyloxy)phenyl]-1H-pyrrole-2,5-dione] returned a melting point of 182.4 to 187 °C.

In the case of `Cn1cc(C2=C(c3cccc(N4CCOCC4)c3)C(=O)NC2=O)c2ccccc21` (as salt: hydrochloride) [II-15, 3-(1-methylindol-3-yl)-4-(3-morpholin-4-ylphenyl)-1H-pyrrole-2,5-dione hydrochloride], the melting point lay in the range of 205.3 to 212.6 °C.

For `Cn1cc(C2=C(c3cccc(NCCO)c3)C(=O)NC2=O)c2ccccc21` (as salt: hydrochloride) [II-19, 3-(1-methylindol-3-yl)4-[3-(2-hydroxyethylamino)phenyl]-1H-pyrrole-2,5-dione], the melting point fell in the range of 170.3 to 170.6 °C.

In the case of `Cn1cc(C2=C(c3ccccc3OCC3COC(C)(C)O3)C(=O)NC2=O)c2ccccc21` (racemic) [Compound I-2, 3-(1-methylindol-3-yl)-4-[2-((RS)-2,2-dimethyl-1,3-dioxolan-4-ylmethyloxy)phenyl]-1H-pyrrole-2,5-dione], the melting point was in the range of 220.8 to 221.2 °C.

Turning to `Cn1cc(C2=C(c3cccc(NCC(O)CO)c3)C(=O)NC2=O)c2ccccc21` (racemic) [II-9, 3-(1-methylindol-3-yl)-4-{3-[(2-(RS)-hydroxy-2-hydroxymethyl)ethylamino]phenyl}-1H-pyrrole-2,5-dione], the melting point lay within 160 to 163.5 °C.

Compound `CC(CO)Nc1cccc(C2=C(c3cn(C)c4ccccc34)C(=O)NC2=O)c1` (racemic) [II-22, 3-(1-methylindol-3-yl)-4-[3-(2-hydroxy-1-methylethylamino)phenyl]-1H-pyrrole-2,5-dione] yielded a melting point of 203.1 to 205.8 °C.

With `O=C1NC(=O)C(c2cn(CCCO)c3ccc(F)cc23)=C1c1cccc(NCC(O)CO)c1` (racemic) [III-6, 3-{3-[(2,3-dihydroxypropyl)amino]phenyl}-4-[5-fluoro-1-(3-hydroxypropyl)-1H-indol-3-yl]-1H-pyrrole-2,5-dione], the melting point was 118 to 125 °C.

`Cn1cc(C2=C(c3cccc(OCC(O)CO)c3)C(=O)NC2=O)c2ccccc21` (stereo in doubt) [II-5, 3-(1-methylindol-3-yl)-4-{3-[((S)-2-hydroxy-2-hydroxymethyl)ethyloxy]-phenyl]-1H-pyrrole-2,5-dione] displayed a melting point of 176.9 to 178.1 °C.

`Cn1cc(C2=C(c3cccc(OCC4COC(C)(C)O4)c3)C(=O)NC2=O)c2ccccc21` (stereo in doubt) [II-6, 3-(1-methylindol-3-yl)-4-[3-((R)-2,2-dimethyl-1,3-dioxolan-4-ylmethyloxy)phenyl]-1H-pyrrole-2,5-dione] came in with a melting point of 220.8 to 221.2 °C.

`Cn1cc(C2=C(c3ccc(OCC(O)CO)cc3)C(=O)NC2=O)c2ccccc21` (stereo in doubt) [IV-6, 3-(1-methylindol-3-yl)-4-{4-[((R)-2-hydroxy-2-hydroxymethyl)ethyloxy]-phenyl}-1H-pyrrole-2,5-dione] gave a melting point of 220.3 to 222.7 °C.

Compound `Cn1cc(C2=C(c3ccccc3OCC(O)CO)C(=O)NC2=O)c2ccccc21` (centres unmarked) [Compound I-1, 3-(1-methylindol-3-yl)-4-{2-[(-2-hydroxy-2-hydroxymethyl)ethyloxy]-phenyl}-1H-pyrrole-2,5-dione] had a melting point of 245 to 247.1 °C.

In turn, `Cn1cc(C2=C(c3cccc(OC[C@H](O)CO)c3)C(=O)NC2=O)c2ccccc21` [II-3, 3-(1-methylindol-3-yl)-4-{3-[((R)-2-hydroxy-2-hydroxymethyl)ethyloxy]phenyl}-1H-pyrrole-2,5-dione] displayed a melting point of 177.7 to 178 °C.

Compound `Cn1cc(C2=C(c3cccc(OCCN4CCOCC4)c3)C(=O)NC2=O)c2ccccc21` [II-4, 3-(1-methylindol-3-yl)-4-[3-(2-morpholin-4-ylethyloxy)phenyl]-1H-pyrrole-2,5-dione] registered a melting point of 197.7 to 199 °C.

Regarding `Cn1cc(C2=C(c3cccc(OC[C@H]4COC(C)(C)O4)c3)C(=O)NC2=O)c2ccccc21` [II-7, 3-(1-methylindol-3-yl)-4-[3-((S)-2,2-dimethyl-1,3-dioxolan-4-ylmethyloxy)phenyl]-1H-pyrrole-2,5-dione], the melting point lay in the range of 186.8 to 187.4 °C.

On to `Cn1cc(C2=C(c3cccc(NC4COC(C)(C)OC4)c3)C(=O)NC2=O)c2ccccc21` [II-10, 3-(1-methylindol-3-yl)-4-[3-(2,2-dimethyl-1,3-dioxan-5-ylamino)phenyl]-1H-pyrrole-2,5-dione], for which the melting point was 201 to 203 °C.

Take `Cn1cc(C2=C(c3cccc(OCCCO)c3)C(=O)NC2=O)c2ccccc21` [II-20]: the melting point lay in the range of 150.2 to 152.6 °C.

In the case of `Cn1cc(C2=C(c3cccc(N4CCC(O)CC4)c3)C(=O)NC2=O)c2ccccc21` [II-29, 3-[3-(4-hydroxypiperidin-1-yl)phenyl]-4-(1-methyl-1H-indol-3-yl)-1H-pyrrole-2,5-dione], the melting point was 136 to 141 °C.

Compound `CC(O)CCNc1ccc(C2=C(c3cn(C)c4ccccc34)C(=O)NC2=O)cc1` (centres unmarked) [IV-4] came in with a melting point of 58 to 61.5 °C.
